Results: the CheMixHub ionic liquid set
± gives the uncertainty stated by the source.

Assay: xn = mol fraction of the nth substance listed
Conditions: for electrical conductivity: frequency 0.003 MHz

`O` + CCCC[n+]1ccc(C)cc1.[Br-] showed an electrical conductivity (288.15 K, 100 kPa, x2 = 0) of 0.0001 S/m and an electrical conductivity (308.15 K, 100 kPa, x2 = 0) of 0.00022 S/m.

For `CC1COC(=O)O1` (configuration not stated) + CCCC[n+]1ccccc1.N#C[N-]C#N, the viscosity (318.15 K, 101 kPa, x2 = 0) was 1.724 ± 0.062 mPa·s and the viscosity (333.15 K, 101 kPa, x2 = 0) was 1.366 ± 0.061 mPa·s.

Compound `CCCC[n+]1ccn(C)c1.F[B-](F)(F)F` + CCCC[n+]1ccn(C)c1.COS(=O)(=O)[O-] has a viscosity (302.15 K, 101 kPa, x1 = 1) of 88.7 ± 2 mPa·s and a viscosity (305.15 K, 101 kPa, x1 = 1) of 76.8 ± 1.5 mPa·s.

`C1COCCO1` + CCCC[n+]1ccn(C)c1.F[B-](F)(F)F showed a viscosity (298.15 K, 100 kPa, x2 = 0) of 1.18 ± 0.016 mPa·s.
